# Measured values taken from patent EP2406206B1, “TETRAHYDRONAPHTHALEN-2-OL DERIVATIVES” (MSD Oss B.V., priority 2009, dated 2010).
# How the values were obtained:
# [1] = target: human estrogen receptor β receptor (hERβ) (Homo sapiens, UniProt Q92731); test: ERβ transactivation bioassay in recombinant CHO cells (rat oxytocin promoter, luciferase reporter); format: cell-based; settings: for ERβ/ERα ratio: ERβ agonistic selectivity over ERα, transactivation data; for ERβ eudismic ratio: ratio of the activities of the eutomer and the distomer on ERβ; for EC50: transactivation of luciferase via hERβ in CHO cells, read-out: ERβ agonistic EC50
# Sequence of human estrogen receptor β receptor (hERβ) (Q92731 whole entry): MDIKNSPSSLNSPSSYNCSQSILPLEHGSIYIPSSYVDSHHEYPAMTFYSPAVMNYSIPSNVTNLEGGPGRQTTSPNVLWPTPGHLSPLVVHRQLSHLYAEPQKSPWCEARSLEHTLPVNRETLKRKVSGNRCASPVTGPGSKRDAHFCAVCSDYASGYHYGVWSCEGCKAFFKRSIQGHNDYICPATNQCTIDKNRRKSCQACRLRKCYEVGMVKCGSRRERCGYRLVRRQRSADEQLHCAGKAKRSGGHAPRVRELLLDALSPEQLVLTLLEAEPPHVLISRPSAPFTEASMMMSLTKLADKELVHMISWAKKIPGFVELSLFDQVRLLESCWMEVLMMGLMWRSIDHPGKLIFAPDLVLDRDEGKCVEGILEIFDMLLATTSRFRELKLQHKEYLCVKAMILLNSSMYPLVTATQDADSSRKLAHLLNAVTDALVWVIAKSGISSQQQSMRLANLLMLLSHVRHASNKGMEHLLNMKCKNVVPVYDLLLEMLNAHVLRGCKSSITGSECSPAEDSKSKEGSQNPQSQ
# Procedure: (§1) The estrogenic and antiestrogenic activity of compounds was determined in an in vitro bioassay with recombinant Chinese hamster ovary (CHO) cells stably co-transfected with the human estrogen receptor α (hERα) or β receptor (hERβ), the rat oxytocin promoter (RO) and the luciferase reporter gene (LUC). The estrogenic activity of a test compound to stimulate the transactivation of the enzyme luciferase mediated via the estrogen receptors hERα or hERβ is expressed in nM. The assay was performed as described by De Gooyer et al., Steroids 68 (2003), 21-30. Table 7. ERβ and ERα transactivation data
# [2] = target: T1, human estrogen receptor α (hERα) (Homo sapiens, UniProt P03372); test: ERα transactivation bioassay in recombinant CHO cells (rat oxytocin promoter, luciferase reporter); format: cell-based; settings: ratio of the activities of the eutomer and the distomer on ERα
# T1 sequence (P03372 1-595): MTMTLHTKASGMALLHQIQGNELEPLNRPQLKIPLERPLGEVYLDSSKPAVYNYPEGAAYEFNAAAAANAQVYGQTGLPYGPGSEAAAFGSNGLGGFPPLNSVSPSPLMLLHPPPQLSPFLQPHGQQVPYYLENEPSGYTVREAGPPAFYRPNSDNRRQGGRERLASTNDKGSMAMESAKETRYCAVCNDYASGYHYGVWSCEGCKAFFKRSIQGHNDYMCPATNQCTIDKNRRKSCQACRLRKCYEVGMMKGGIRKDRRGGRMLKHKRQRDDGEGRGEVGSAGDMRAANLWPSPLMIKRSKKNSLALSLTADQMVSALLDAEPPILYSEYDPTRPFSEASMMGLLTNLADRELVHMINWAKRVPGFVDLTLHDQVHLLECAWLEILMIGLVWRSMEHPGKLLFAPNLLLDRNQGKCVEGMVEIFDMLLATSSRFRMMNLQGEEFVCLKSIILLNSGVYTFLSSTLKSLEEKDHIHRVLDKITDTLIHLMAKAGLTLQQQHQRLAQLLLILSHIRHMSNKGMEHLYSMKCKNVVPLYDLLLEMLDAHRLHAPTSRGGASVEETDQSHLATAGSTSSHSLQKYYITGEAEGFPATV
# Procedure: as §1
# [3] = tested on: acinar epithelium of the ventral prostate; test: short-term prostate apoptosis and proliferation model in castrated rats; format: in vivo, Wistar rats
# Procedure: Selected compounds were tested in a short-term prostate apoptosis and proliferation model in castrated rats.
# Intact mature male Wistar rats (350-400 g) were castrated and left to recover for 1 week. 7 days after the castration rats received a single subcutaneous injection of testosterone buciclate (TB), a long-acting testosterone ester, in arachis oil (20 mg/kg) with a volume of 1 ml/kg and were subsequently treated once daily orally for 3 days with the test substance at doses between 0 and 1000 µg/kg, dissolved in gelatin/mannitol and dosed with a volume of 1 ml/kg.
# At the end of the experiment rats were euthanized, the prostates were removed, weighed and processed for histology.
# Apoptosis of the acinar epithelium of the ventral prostate was determined with TUNEL ([…]) staining. Apoptotic cells show nuclear DNA fragmentation and the TUNEL assay end-labels the fragmented DNA by incorporating biotinylated dUTP at the 3'-OH DNA ends using the enzyme Terminal deoxynucleotidyl Transferase (TdT). Positively stained cells are counted per acinus (glandular unit) in the ventral prostate. Proliferation of the acinar epithelium of the ventral prostate was determined by immunohistochemical staining with an antibody directed against Ki67 (clone Mib5). Positively stained cells are counted per acinus (glandular unit) in the ventral prostate. Statistical significance is determined as compared to TB alone by one-way ANOVA.
# [4] = metabolic stability in human hepatocytes; format: in vitro ADME; settings: cryopreserved human hepatocytes in suspension, tetrahydronaphthalen-2-ol, 37°C, sampled 0-120 min, LC-MS/MS, read-out: Human hepatocyte T1/2
# Procedure: A number of compounds 9, 11 and 12 were tested on metabolic stability in human hepatocytes. The hepatic stability was compared to corresponding chroman compounds 25, 26 or 27 (see structures below).
# Test compounds were diluted to 3 µM in incubation medium. Then 40 µl of the 3 µM test compounds was pipetted into a 96 well microtiter plate (flat bottom). Hepatocytes (stored at -140 °C) were thawed in a 37°C water bath. The cells were resuspended into pre-warmed thawing medium and were centrifuged for 5 minutes at 50g at room temperature. The supernatant was discarded and the remaining cell pellet was resuspended in warm incubation medium and diluted to 7.5 E5 cells/ml. Then 80 µl of the cell suspension was added to each well of the 96 well microtiter plate containing the test compounds. The resulting mixture was incubated at 37°C and was sampled at t=0, 5, 30, 60, and 120 min. The samples were analyzed by LC-MS/MS to determine the content of unchanged test compound. Based on the rate of reduction of the content of test compound over time, the half-live (T1/2) was calculated. Metabolic stability in human hepatocytes
SMILES,ERβ/ERα ratio [1],ERβ eudismic ratio [1],EC50 [1] [nM],ERα eudismic ratio [2],"epithelial cell proliferation ([3]; Ki67 staining, ventral prostate, at 3 µg/kg orally, compared to TB-alone treated rats)","epithelial cell apoptosis ([3]; TUNEL staining, ventral prostate, castrated rats given TB, treated once daily orally for 3 days, compared to TB alone)","minimal active dose (MAD) ([3]; increase in epithelial cell apoptosis, once daily orally for 3 days) [µg/kg]",half-life at 1 µM [4] [min]
"C[C@H]1[C@@H](c2ccc(O)cc2)Cc2ccc(O)cc2[C@H]1Cc1ccccc1F (single isomer, unassigned) [Compound 11a]",189,>263,0.38,>1.4,decrease,statistically significant (p<0.01) increase,3,40.5
"CC[C@H]1[C@@H](c2ccc(O)cc2)Cc2ccc(O)cc2[C@H]1Cc1ccccc1F (single isomer, unassigned) [Compound 11b]",167,93,0.15,0.9,,,,40.7
"C[C@H]1[C@@H](c2ccc(O)cc2)Cc2ccc(O)cc2[C@H]1Cc1cccc(F)c1 (single isomer, unassigned) [Compound 11f]",21,13,1.2,>4,,,,
"C[C@H]1[C@@H](c2ccc(O)cc2)Cc2ccc(O)cc2[C@H]1Cc1ccc(F)cc1 (single isomer, unassigned) [Compound 11g]",19,9,1.4,>4,,,,
"CC[C@H]1[C@@H](c2ccc(O)c(F)c2)Cc2ccc(O)cc2[C@H]1Cc1ccccc1F (single isomer, unassigned) [Compound 11q]",>169,7,0.59,<0.3,,,,82.2
"CC[C@H]1[C@@H](c2ccc(O)cc2)Cc2ccc(O)cc2[C@H]1Cc1ccc(F)cc1 (single isomer, unassigned) [Compound 11w]",61,42,0.36,0.4,,,,
